Experimental data reported in patent US20250340574A1, “MODULATORS OF CYSTIC FIBROSIS TRANSMEMBRANE CONDUCTANCE REGULATOR” (Vertex Pharmaceuticals Incorporated, priority 2022, published 2025).

Molecular target: T1, CFTR (F508del/MF-HBE cells) (Homo sapiens, UniProt P13569, DEL508-508)
T1 construct: human bronchial epithelial (HBE) cells derived from CF subjects heterozygous for F508del and a minimal function CFTR mutation (F508del/MF-HBE); endogenous in cells; host or cells: Primary human bronchial epithelial cells from CF subjects (F508del/MF genotype), differentiated at an air-liquid interface
T1 sequence (P13569 with tags, fused parts or gaps DEL508-508): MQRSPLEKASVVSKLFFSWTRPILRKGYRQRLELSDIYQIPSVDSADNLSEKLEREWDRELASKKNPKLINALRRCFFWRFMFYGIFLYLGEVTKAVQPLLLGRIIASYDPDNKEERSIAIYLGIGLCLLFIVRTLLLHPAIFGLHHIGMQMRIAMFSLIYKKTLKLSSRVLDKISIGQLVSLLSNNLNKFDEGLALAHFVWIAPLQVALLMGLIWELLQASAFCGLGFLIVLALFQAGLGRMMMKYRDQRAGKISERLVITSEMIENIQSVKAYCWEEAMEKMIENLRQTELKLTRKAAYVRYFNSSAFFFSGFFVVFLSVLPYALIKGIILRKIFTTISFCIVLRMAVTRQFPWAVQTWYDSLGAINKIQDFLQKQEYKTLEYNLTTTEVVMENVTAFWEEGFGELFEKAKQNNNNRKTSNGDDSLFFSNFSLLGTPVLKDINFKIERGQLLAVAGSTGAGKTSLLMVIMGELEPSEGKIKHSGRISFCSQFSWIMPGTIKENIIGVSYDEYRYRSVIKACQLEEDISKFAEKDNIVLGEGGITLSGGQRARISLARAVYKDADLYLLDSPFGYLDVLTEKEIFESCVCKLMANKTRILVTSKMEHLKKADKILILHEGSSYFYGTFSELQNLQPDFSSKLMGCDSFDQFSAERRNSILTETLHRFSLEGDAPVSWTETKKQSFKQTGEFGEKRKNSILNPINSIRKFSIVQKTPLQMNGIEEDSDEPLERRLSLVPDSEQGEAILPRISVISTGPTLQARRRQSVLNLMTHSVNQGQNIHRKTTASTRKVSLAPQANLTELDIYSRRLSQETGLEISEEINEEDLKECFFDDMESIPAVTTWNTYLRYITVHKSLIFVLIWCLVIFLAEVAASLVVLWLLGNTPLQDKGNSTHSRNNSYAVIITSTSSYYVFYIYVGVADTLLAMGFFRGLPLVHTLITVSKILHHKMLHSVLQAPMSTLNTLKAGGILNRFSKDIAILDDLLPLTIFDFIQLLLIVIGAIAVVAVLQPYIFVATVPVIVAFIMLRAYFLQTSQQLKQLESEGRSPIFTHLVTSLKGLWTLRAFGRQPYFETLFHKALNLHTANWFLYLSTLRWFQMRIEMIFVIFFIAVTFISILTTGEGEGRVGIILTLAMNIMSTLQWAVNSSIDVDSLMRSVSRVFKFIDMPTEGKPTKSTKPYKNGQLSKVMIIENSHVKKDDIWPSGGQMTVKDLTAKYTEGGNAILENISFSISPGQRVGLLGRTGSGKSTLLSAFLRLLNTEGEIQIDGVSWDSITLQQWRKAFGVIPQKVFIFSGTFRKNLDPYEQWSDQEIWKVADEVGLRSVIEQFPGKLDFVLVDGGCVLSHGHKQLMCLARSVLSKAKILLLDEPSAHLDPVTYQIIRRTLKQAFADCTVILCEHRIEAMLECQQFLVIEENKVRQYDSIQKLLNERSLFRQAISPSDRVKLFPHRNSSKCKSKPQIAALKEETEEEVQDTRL
Test: Ussing chamber assay of CFTR-mediated short-circuit currents, Assay A (0.1 μM to 25 μM, 6 concentrations)
Assay type: cell-based
Conditions: with 33 nM potentiator and 18 μM Tezacaftor, 20% human serum; for Emax: 18-24 hours, read-out: A Max activity (%)
Description: Ussing chamber experiments were performed using human bronchial epithelial (HBE) cells derived from CF subjects heterozygous for F508del and a minimal function CFTR mutation (F508del/MF-HBE) and cultured as previously described (Neuberger T, Burton B, Clark H, Van Goor F Methods Mol Biol 2011:741:39-54). After four days the apical media was removed, and the cells were grown at an air liquid interface for >14 days prior to use.
To isolate the CFTR-mediated short-circuit (ISC) current, F508del/MF-HBE grown on Costar® Snapwell™ cell culture inserts were mounted in an Ussing chamber and the transepithelial ISC was measured under voltage-clamp recording conditions (Vhold=0 mV) at 37° C. The basolateral solution contained (in mM) 145 NaCl, 0.83 K2HPO4, 3.3 KH2PO4, 1.2 MgCl2, 1.2 CaCl2, 10 Glucose, 10 HEPES (pH adjusted to 7.4 with NaOH) and the apical solution contained (in mM) 145 NaGluconate, 1.2 MgCl2, 1.2 CaCl2, 10 glucose, 10 HEPES (pH adjusted to 7.4 with NaOH) and 30 μM amiloride to block the epithelial sodium channel. Forskolin (20 μM) was added to the apical surface to activate CFTR, followed by apical addition of a CFTR inhibitor cocktail consisting of BPO, GlyH-101, and CFTR inhibitor 172 (each at 20 μM final assay concentration) to specifically isolate CFTR currents. The CFTR-mediated ISC (μA/cm^2) for each condition was determined from the peak forskolin response to the steady-state current following inhibition.
The activity of the CFTR corrector compounds on the CFTR-mediated ISC was determined in Ussing chamber studies as described above. The F508del/MF-HBE cell cultures were either incubated with the corrector compounds at a range of concentrations in combination with 33 nM (6R,12R)-17-amino-12-methyl-6,15-bis(trifluoromethyl)-13,19-dioxa-3,4,18-triazatricyclo[12.3.1.12,5]nonadeca-1(18),2,4,14,16-pentaen-6-ol and 18 μM Tezacaftor or were incubated with the corrector compounds at a single fixed concentration of 1 μM in combination with 44 nM (6R,12R)-17-amino-12-methyl-6,15-bis(trifluoromethyl)-13,19-dioxa-3,4,18-triazatricyclo[12.3.1.12,5]nonadeca-1(18),2,4,14,16-pentaen-6-ol and 18 μM Tezacaftor for 18-24 hours at 37° C. and in the presence of 20% human serum. The concentration of corrector compounds with 44 nM or 33 nM (6R,12R)-17-amino-12-methyl-6,15-bis(trifluoromethyl)-13,19-dioxa-3,4,18-triazatricyclo[12.3.1.12,5]nonadeca-1(18),2,4,14,16-pentaen-6-ol and 18 μM Tezacaftor during the 18-24 hours incubations was kept constant throughout the Ussing chamber measurement of the CFTR-mediated ISC to ensure compounds were present throughout the entire experiment. The efficacy and potency of the putative F508del correctors was compared to that of the known Vertex corrector, (14S)-8-[3-(2-{Dispiro[2.0.2.1]heptan-7-yl}ethoxy)-1H-pyrazol-1-yl]-12,12-dimethyl-2λ^6-thia-3,9,11,18,23-pentaazatetracyclo[17.3.1.111,14.05,10]tetracosa-1(22),5,7,9,19(23),20-hexaene-2,2,4-trione, in combination with 18 μM Tezacaftor and 1 μM Ivacaftor.
• Assay A: 0.1 μM to 25 μM, 6 concentrations • Assay B: 0.00001 μM to 25 μM, 12 concentrations • Assay C: 0.026 μM to 25 μM, 6 concentrations • Assay D: Activity at single concentration of 1 μM

Compound	Emax	EC50
Cc1cccc(C)c1-c1cc2nc(n1)NS(=O)(=O)c1cccc(c1)C(=O)N(Cc1cnc3oc(C4CC4)cc3n1)[C@H](CC(C)(C)C)CO2 [Compound I-20]	> 60%	< 1000 nM
Cc1cccc(C)c1-c1cc2nc(n1)NS(=O)(=O)c1cccc(c1)C(=O)N(Cc1cnc3oc(C(C)C)c(C)c3n1)[C@H](CCC1(C)CCC1)CO2 [Compound I-34]	> 60%	< 1000 nM
Cc1cccc(C)c1-c1cc2nc(n1)NS(=O)(=O)c1cccc(c1)C(=O)N(Cc1cnc3oc(C(C)C)cc3n1)[C@H](CC(C)(C)F)CO2 [Compound I-35]	> 60%	< 1000 nM
Cc1cccc(C)c1-c1cc2nc(n1)NS(=O)(=O)c1cccc(c1)C(=O)N(Cc1cnc3oc(C4CC4)cc3n1)[C@H](C[C@H]1CCCCO1)CO2 (stereo in doubt) [Compound I-44]	> 60%	< 1000 nM
Cc1cccc(C)c1-c1cc2nc(n1)NS(=O)(=O)c1cccc(c1)C(=O)N(Cc1cnc3oc(C4CC4)cc3n1)[C@H](CCC1(C)CCC1)CO2 [Compound I-47]	> 60%	< 1000 nM
Cc1cccc(C)c1-c1cc2nc(n1)NS(=O)(=O)c1cccc(c1)C(=O)N(Cc1cnc3oc(C(C)C)c(C)c3n1)[C@H](CC1CCCCC1)CO2 [Compound I-12]	> 60%	< 1000 nM
Cc1cccc(C)c1-c1cc2nc(n1)NS(=O)(=O)c1cccc(c1)C(=O)N(Cc1cnc3oc(C4CC4)cc3n1)[C@H](CC1CCCCC1)CO2 [Compound I-42]	> 60%	< 1000 nM
Cc1cccc(C)c1-c1cc2nc(n1)NS(=O)(=O)c1cccc(c1)C(=O)N(Cc1cnc3oc(C(C)C)c(C)c3n1)[C@H](CC(C)(C)C)CO2 [Compound I-4]	> 60%	< 1000 nM
Cc1cccc(C)c1-c1cc2nc(n1)NS(=O)(=O)c1cccc(c1)C(=O)N(Cc1cnc3oc(C(C)C)cc3n1)[C@H](CC(C)C)CO2 [Compound I-1]	> 60%	< 1000 nM
Cc1cccc(C)c1-c1cc2nc(n1)NS(=O)(=O)c1cccc(c1)C(=O)N(Cc1cnc3oc(C(C)C)cc3n1)[C@H](CC1CCCCC1)CO2 [Compound I-9]	> 60%	< 1000 nM
Cc1cccc(C)c1-c1cc2nc(n1)NS(=O)(=O)c1cccc(c1)C(=O)N(Cc1nc3c(cc1F)cc(C(C)C)n3C)[C@H](CC(C)(C)C)CO2 [Compound I-6]	> 60%	< 1000 nM
Cc1cccc(C)c1-c1cc2nc(n1)NS(=O)(=O)c1cccc(c1)C(=O)N(Cc1cnc3oc(C(C)C)cc3n1)C(COC1CCC1)CO2 (single isomer, unassigned) [Compound I-49, 11-(cyclobutoxymethyl)-6-(2,6-dimethylphenyl)-12-[(6-isopropylfuro[2,3-b]pyrazin-2-yl)methyl]-2,2-dioxo-9-oxa-2λ^6-thia-3,5,12,19-tetrazatricyclo[12.3.1.14,8]nonadeca-1(18),4(19),5,7,14,16-hexaen-13-one]	> 60%	< 1000 nM
Cc1cccc(C)c1-c1cc2nc(n1)NS(=O)(=O)c1cccc(c1)C(=O)N(Cc1cnc3oc(C(C)C)c(C)c3n1)[C@H](CCC(C)C)CO2 [Compound I-19]	> 60%	< 1000 nM
Cc1cccc(C)c1-c1cc2nc(n1)NS(=O)(=O)c1cccc(c1)C(=O)N(Cc1cnc3oc(C(C)C)cc3n1)[C@H](C[C@H]1CCCCO1)CO2 [Compound I-7]	> 60%	< 1000 nM

Second part, the compound after the results:

Emax	EC50	Compound
> 60%	< 1000 nM	Cc1cccc(C)c1-c1cc2nc(n1)NS(=O)(=O)c1cccc(c1)C(=O)N(Cc1nc3c(cc1F)cc(C(C)C)n3C)[C@@H](COC1CCC1)CO2 (stereo in doubt) [Compound I-84]
> 60%	< 1000 nM	Cc1cccc(C)c1-c1cc2nc(n1)NS(=O)(=O)c1cccc(c1)C(=O)N(Cc1cnc3oc(C(C)C)c(C#N)c3n1)[C@H](CC13CC(C1)C3)CO2 [Compound I-85]
> 60%	< 1000 nM	Cc1cccc(C)c1-c1cc2nc(n1)NS(=O)(=O)c1cccc(c1)C(=O)N(Cc1cnc3oc(C4CC4)cc3n1)[C@H](CC1C3(CC3)C13CC3)CO2 [Compound I-102]
> 60%	< 1000 nM	Cc1cccc(C)c1-c1cc2nc(n1)NS(=O)(=O)c1cccc(c1)C(=O)N(Cc1cnc3cc(C(C)C)n(C)c3n1)[C@H](CCC(C)(C)F)CO2 [Compound I-106]
> 60%	< 1000 nM	Cc1cccc(C)c1-c1cc2nc(n1)NS(=O)(=O)c1cccc(c1)C(=O)N(Cc1cnc3oc(C(C)C)cc3n1)[C@H](CC1(C(F)(F)F)CC1)CO2 [Compound I-54]
> 60%	< 1000 nM	Cc1cccc(C)c1-c1cc2nc(n1)NS(=O)(=O)c1cccc(c1)C(=O)N(Cc1cnc3oc(C4CC4)cc3n1)[C@H](CCC(C)(C)F)CO2 [Compound I-107]
> 60%	< 1000 nM	Cc1cccc(C)c1-c1cc2nc(n1)NS(=O)(=O)c1cccc(c1)C(=O)N(Cc1nc3c(cc1F)cc(C(C)C)n3C)[C@H](CC1(C)CC1)CO2 [Compound I-80]
> 60%	< 1000 nM	Cc1cccc(C)c1-c1cc2nc(n1)NS(=O)(=O)c1cccc(c1)C(=O)N(Cc1cnc3nc(C(C)C)n(C)c3n1)[C@H](COC(C)C)CO2 [Compound I-90]
> 60%	< 1000 nM	Cc1cccc(C)c1-c1cc2nc(n1)NS(=O)(=O)c1cccc(c1)C(=O)N(Cc1cn3cccc(N)c3n1)[C@H](CC(C)(C)C)CO2 [III-12]
> 60%	< 1000 nM	Cc1cccc(C)c1-c1cc2nc(n1)NS(=O)(=O)c1cccc(c1)C(=O)N(Cc1cnc3cc(C(C)C)n(C)c3n1)[C@@H](CCC1(C)CC1)CO2 (stereo in doubt) [Compound I-72]
> 60%	< 1000 nM	Cc1cccc(C)c1-c1cc2nc(n1)NS(=O)(=O)c1cccc(c1)C(=O)N(Cc1nc3cc(C(C)C)oc3cc1F)[C@H](CC1(C)CC1)CO2 [Compound I-78]
> 60%	< 1000 nM	Cc1cccc(C)c1-c1cc2nc(n1)NS(=O)(=O)c1cccc(c1)C(=O)N(Cc1cnc3oc(C(C)C)c(C)c3n1)[C@@H](COC1CCC1)CO2 (stereo in doubt) [Compound I-93]
> 60%	< 1000 nM	Cc1cccc(C)c1-c1cc2nc(n1)NS(=O)(=O)c1cccc(c1)C(=O)N(Cc1cnc3oc(C(C)C)c(C)c3n1)[C@H](CC1CCCC1)CO2 [Compound I-64]
> 60%	< 1000 nM	Cc1cccc(C)c1-c1cc2nc(n1)NS(=O)(=O)c1cccc(c1)C(=O)N(Cc1cnc3cc(C(C)C)n(C)c3n1)[C@H](CC1C3(CC3)C13CC3)CO2 [Compound I-100]
> 60%	< 1000 nM	Cc1cccc(C)c1-c1cc2nc(n1)NS(=O)(=O)c1cccc(c1)C(=O)N(Cc1cnc3oc(C4CC4)cc3n1)[C@@H](COC1CCC1)CO2 (stereo in doubt) [Compound I-58]
> 60%	< 1000 nM	Cc1cccc(C)c1-c1cc2nc(n1)NS(=O)(=O)c1cccc(c1)C(=O)N(Cc1nc3cc(C(C)C)oc3cc1F)[C@H](CC(C)(C)C)CO2 [Compound I-63]
> 60%	< 1000 nM	Cc1cccc(C)c1-c1cc2nc(n1)NS(=O)(=O)c1cccc(c1)C(=O)N(Cc1cnc3oc(C(C)C)cc3n1)[C@H](CC1C3(CC3)C13CC3)CO2 [Compound I-101]
> 60%	< 1000 nM	Cc1cccc(C)c1-c1cc2nc(n1)NS(=O)(=O)c1cccc(c1)C(=O)N(Cc1nc3cc(C(C)C)oc3cc1F)[C@@H](COC1CCC1)CO2 (stereo in doubt) [Compound I-95]
